According to PubChem BioAssay AID332 (DTP/NCI, 2004):
Where “and” joins values, the source holds several entries; their conditions need not be identical. Equal entries are not always repeated. Inconclusive results are not listed.

Test system: mice, ADJ-PC-20 plasma cell tumor sc, T/C %
Assay: NCI In Vivo Anticancer Drug Screen. Data for tumor model ADJ-PC-20 Plasma Cell (subcutaneous) in unknown mice
Details: endpoint: mean tumor weight, higher = larger tumour
Experimental: The antitumor activity of compounds was measured in mice bearing transplantable tumors. Survival or tumor size were measured and the results are expressed as the measurement made in the treated group (T) divided by the measurement made in the vehicle treated control group (C). The tumor model used in this assay is ADJ-PC-20 Plasma Cell (subcutaneous) in unknown mice

[1] = dose: 2.0 mg/kg/injection, schedule: Q01DX010 (ip), vehicle: carboxymethylcellulose (CMC)
[2] = dose: 12.5 mg/kg/injection, schedule: Q01DX010 (ip), vehicle: carboxymethylcellulose (CMC)
[3] = dose: 25.0 mg/kg/injection, schedule: Q01DX010 (ip), vehicle: carboxymethylcellulose (CMC)
[4] = dose: 25.0 mg/kg/injection, schedule: Q01DX010 (ip), vehicle: water
[5] = dose: 50.0 mg/kg/injection, schedule: Q01DX010 (ip), vehicle: carboxymethylcellulose (CMC)
[6] = dose: 125.0 mg/kg/injection, schedule: Q01DX010 (ip), vehicle: carboxymethylcellulose (CMC)
[7] = dose: 250.0 mg/kg/injection, schedule: Q01DX010 (ip), vehicle: carboxymethylcellulose (CMC)
[8] = dose: 31.25 mg/kg/injection, schedule: Q01DX010 (ip), vehicle: carboxymethylcellulose (CMC)
[9] = dose: 62.5 mg/kg/injection, schedule: Q01DX010 (ip), vehicle: carboxymethylcellulose (CMC)

CN(C)c1ccc(/C=C/c2ccnc3ccccc23)cc1
T/C [1]: 117 % of control | T/C (dose: 4.0 mg/kg/injection, schedule: Q01DX010 (ip), vehicle: water): 81 % of control | T/C (dose: 16.0 mg/kg/injection, schedule: Q01DX010 (ip), vehicle: carboxymethylcellulose (CMC)): 89 % of control and 99 % of control | T/C (dose: 16.0 mg/kg/injection, schedule: Q01DX010 (ip), vehicle: water): 78 % of control | T/C (dose: 32.0 mg/kg/injection, schedule: Q01DX010 (ip), vehicle: carboxymethylcellulose (CMC)): 28 % of control

CCCCn1cnc2c(=S)nc[nH]c21
T/C (dose: 0.8 mg/kg/injection, schedule: Q01DX010 (ip), vehicle: carboxymethylcellulose (CMC)): 74 % of control | T/C (dose: 1.6 mg/kg/injection, schedule: Q01DX010 (ip), vehicle: carboxymethylcellulose (CMC)): 68 % of control | T/C (dose: 3.1 mg/kg/injection, schedule: Q01DX010 (ip), vehicle: carboxymethylcellulose (CMC)): 52 % of control | T/C (dose: 6.3 mg/kg/injection, schedule: Q01DX010 (ip), vehicle: carboxymethylcellulose (CMC)): 41 % of control | T/C [2]: 15 % of control | T/C [3]: 1 % of control

CCCCCCCCCCCCNCCCCCCCCCCCC
T/C (dose: 0.9 mg/kg/injection, schedule: Q01DX010 (ip), vehicle: carboxymethylcellulose (CMC)): 109 % of control | T/C (dose: 1.8 mg/kg/injection, schedule: Q01DX010 (ip), vehicle: carboxymethylcellulose (CMC)): 109 % of control | T/C (dose: 3.7 mg/kg/injection, schedule: Q01DX010 (ip), vehicle: carboxymethylcellulose (CMC)): 98 % of control | T/C (dose: 7.5 mg/kg/injection, schedule: Q01DX010 (ip), vehicle: carboxymethylcellulose (CMC)): 88 % of control and 110 % of control

COS(C)(=O)=O
T/C [4]: 110 % of control | T/C (dose: 50.0 mg/kg/injection, schedule: Q01DX010 (ip), vehicle: water): 82 % of control | T/C (dose: 100.0 mg/kg/injection, schedule: Q01DX010 (ip), vehicle: water): 42 % of control

O=C(Nc1ccc(C2=NCCN2)cc1)c1ccc(C(=O)Nc2ccc(C3=NCCN3)cc2)cc1
T/C [3]: 73 % of control | T/C [5]: 78 % of control | T/C (dose: 100.0 mg/kg/injection, schedule: Q01DX010 (ip), vehicle: carboxymethylcellulose (CMC)): 60 % of control | T/C (dose: 200.0 mg/kg/injection, schedule: Q01DX010 (ip), vehicle: carboxymethylcellulose (CMC)): 71 % of control

CS(=O)(=O)OCCCCOS(C)(=O)=O
T/C (dose: 6.25 mg/kg/injection, schedule: Q01DX010 (ip), vehicle: methylcellulose (MC)): 93 % of control | T/C (dose: 12.5 mg/kg/injection, schedule: Q01DX010 (ip), vehicle: methylcellulose (MC)): 66 % of control | T/C (dose: 25.0 mg/kg/injection, schedule: Q01DX010 (ip), vehicle: methylcellulose (MC)): 71 % of control and 72 % of control | T/C (dose: 50.0 mg/kg/injection, schedule: Q01DX010 (ip), vehicle: methylcellulose (MC)): 42 % of control

O=C(Nc1ccc(C2=NCCN2)cc1)c1cccc(C(=O)Nc2ccc(C3=NCCN3)cc2)c1
T/C (dose: 9.4 mg/kg/injection, schedule: Q01DX010 (ip), vehicle: carboxymethylcellulose (CMC)): 154 % of control | T/C (dose: 18.8 mg/kg/injection, schedule: Q01DX010 (ip), vehicle: carboxymethylcellulose (CMC)): 214 % of control | T/C (dose: 37.5 mg/kg/injection, schedule: Q01DX010 (ip), vehicle: carboxymethylcellulose (CMC)): 187 % of control

OCC1OC(n2cnc3c(Cl)ncnc32)C(O)C1O (centres undefined)
T/C [6]: 100 % of control | T/C [7]: 107 % of control | T/C (dose: 500.0 mg/kg/injection, schedule: Q01DX010 (ip), vehicle: carboxymethylcellulose (CMC)): 93 % of control | T/C (dose: 1000.0 mg/kg/injection, schedule: Q01DX010 (ip), vehicle: carboxymethylcellulose (CMC)): 35 % of control

Cn1cnc([N+](=O)[O-])c1Sc1nc(N)nc2nc[nH]c12
T/C (dose: 0.5 mg/kg/injection, schedule: Q01DX010 (ip), vehicle: carboxymethylcellulose (CMC)): 71 % of control | T/C (dose: 1.0 mg/kg/injection, schedule: Q01DX010 (ip), vehicle: carboxymethylcellulose (CMC)): 33 % of control | T/C [1]: 30 % of control and 31 % of control | T/C (dose: 4.0 mg/kg/injection, schedule: Q01DX010 (ip), vehicle: carboxymethylcellulose (CMC)): 2 % of control

CN(C)c1ccc(/C=C\c2ccnc3ccccc23)cc1
T/C (dose: 6.3 mg/kg/injection, schedule: Q01DX010 (ip), vehicle: water): 70 % of control | T/C (dose: 12.5 mg/kg/injection, schedule: Q01DX010 (ip), vehicle: water): 52 % of control | T/C [4]: 48 % of control | T/C (dose: 25.0 mg/kg/injection, schedule: Q01DX011 (ip), vehicle: water): 92 % of control

CC/C(=C(/CC)c1ccc(O)cc1)c1ccc(O)cc1
T/C (dose: 62.5 mg/kg/injection, schedule: Q01DX010 (sc), vehicle: steriod suspending solution): 105 % of control

CC[C@@H](c1ccc(O)cc1)[C@@H](CC)c1ccc(O)cc1
T/C (dose: 62.0 mg/kg/injection, schedule: Q01DX010 (sc), vehicle: steriod suspending solution): 80 % of control | T/C (dose: 125.0 mg/kg/injection, schedule: Q01DX010 (sc), vehicle: steriod suspending solution): 87 % of control | T/C (dose: 250.0 mg/kg/injection, schedule: Q01DX010 (sc), vehicle: steriod suspending solution): 83 % of control | T/C (dose: 500.0 mg/kg/injection, schedule: Q01DX010 (sc), vehicle: steriod suspending solution): 91 % of control and 105 % of control | T/C (dose: 1000.0 mg/kg/injection, schedule: Q01DX010 (sc), vehicle: steriod suspending solution): 111 % of control

S=c1nc[nH]c2nc[nH]c12
T/C (dose: 3.1 mg/kg/injection, schedule: Q01DX010 (ip), vehicle: other): 28 % of control | T/C (dose: 6.2 mg/kg/injection, schedule: Q01DX010 (ip), vehicle: other): 16 % of control | T/C (dose: 6.25 mg/kg/injection, schedule: Q01DX010 (ip), vehicle: other): 19 % of control | T/C (dose: 6.25 mg/kg/injection, schedule: Q01DX011 (ip), vehicle: other): 7 % of control | T/C (dose: 12.5 mg/kg/injection, schedule: Q01DX010 (ip), vehicle: other): 18 % of control | T/C (dose: 12.5 mg/kg/injection, schedule: Q01DX011 (ip), vehicle: other): 4 % of control | T/C (dose: 25.0 mg/kg/injection, schedule: Q01DX010 (ip), vehicle: other): 9 % of control and 10 % of control | T/C (dose: 25.0 mg/kg/injection, schedule: Q01DX011 (ip), vehicle: other): 5 % of control | T/C (dose: 50.0 mg/kg/injection, schedule: Q01DX011 (ip), vehicle: other): 7 % of control

Clc1ncnc2nc[nH]c12
T/C (dose: 7.8 mg/kg/injection, schedule: Q01DX010 (ip), vehicle: carboxymethylcellulose (CMC)): 153 % of control | T/C (dose: 15.6 mg/kg/injection, schedule: Q01DX010 (ip), vehicle: carboxymethylcellulose (CMC)): 86 % of control | T/C (dose: 31.2 mg/kg/injection, schedule: Q01DX010 (ip), vehicle: carboxymethylcellulose (CMC)): 64 % of control | T/C [8]: 14 % of control | T/C [9]: 3 % of control | T/C [6]: 4 % of control

CC(=O)Nc1ccc2nc3ccc(NC(C)=O)cc3[n+](-c3ccccc3)c2c1
T/C [2]: 65 % of control | T/C [3]: 76 % of control | T/C [5]: 77 % of control

O=c1[nH]c(=O)n(C2CC(O)C(CO)O2)cc1I (centres undefined)
T/C [8]: 49 % of control | T/C [9]: 77 % of control | T/C [6]: 32 % of control | T/C [7]: 11 % of control
